# Test system: KKAy-mice
# Assay: In vivo study of plasma insulin, glucose, triglycerides and body weight in KKAy-mice after isosteviol (Example 3)
# Description: Twenty six male KKAy-mice (Clea Japan, Tokyo, Japan), all 5 week-old, weighing 22-25 g were randomized to 2 groups and treated for 9 weeks with; • A: standard chow diet (control); • B: standard chow diet+20 mg/kg BW of Isosteviol (hereinafter ISV).
# The composition of the standard chow diet dry matter was: Protein 24%, carbohydrate 71%, and Lipids 5%. ISV (ent-16-ketobeyeran-19-oic acid; Wako Pure Chemical Industries, Osaka, Japan) was incorporated in the mice food pellet and administered orally.
# Hormones and lipids were measured from blood sample at start and end of the treatment period. Blood sample was taken from the tail of the animals on chilled tubes containing heparin/aprotinin and centrifuged (4000 g, 60 seconds, […]), and plasma was frozen for subsequent analysis of insulin, glucose and triglycerides. Fasting blood glucose, as well as BW, was measured before and after intervention.
# Plasma blood glucose was determined using the glucose oxidase method (GOD-PAP,
# Boehringer Mannheim, GmbH Germany). Insulin was determined by radioimmunoassay with a guinea pig antiporcine insulin antibody (PNILGP4, Novo Nordisk, Bagsvaerd, Denmark), and mono-[125I]-(Tyr A14) labelled human insulin (Novo Nordisk) as tracer and rat insulin (Novo Nordisk) as standard. We separated free and bound radioactivity using ethanol (Heding, 1972). Interassay and intra-assay variation was below 10%. […] Triglycerides was determined using colorimetric kits (Roche Diagnostics, Boehringer Mannheim, GmbH Germany). The fasting glucose-insulin index was calculated as the product of plasma insulin and plasma glucose ([plasma insulin ng/ml]×[plasma glucose mmol/l]/1000) and compared between groups as relative units (Chang et al., 2005).
# [1] = ISV group of KKAy mice, age 5 weeks, before treatment
# [2] = KKAy mice, 20 mg/kg BW in diet, after 9-week treatment
smiles,measurement,setting,value
"C[C@@]12CC[C@@H]3[C@@](CC[C@H]4[C@@]3(C)CCC[C@@]4(C)C(=O)O)(CC1=O)C2 (single isomer, unassigned; ent-16) [ISV, ent-16-ketobeyeran-19-oic acid]",reduction of plasma insulin increase compared to the KKAy control,9 weeks treatment,62%
same,reduction of the plasma TG increase in the KKAy,9 weeks treatment,74%
same,glucose-insulin index at start of study,"ISV group of KKAy mice before treatment, product of plasma insulin and plasma glucose",8.6 unit
same,plasma glucose at start of study,[1],8.9 mmol/L
same,plasma insulin at start of study,[1],1.0 ng/mL
same,plasma TG level at age 5 week,"ISV group of KKAy mice, before treatment",1.25 mmol/L
same,reduction in plasma glucose compared to the increase for the KKAy,"KKAy at 5 weeks as baseline, 9 weeks treatment",59%
same,plasma TG level at age 14 weeks,KKAy mice after 9 weeks treatment,2.02 mmol/L
same,glucose-insulin index at the end of the study,"KKAy mice after 9 weeks treatment, product of plasma insulin and plasma glucose",1596 unit
same,plasma glucose at the end of the study,[2],16.2 mmol/L
same,plasma insulin at the end of the study,[2],80.9 ng/mL
same,fold increase of plasma glucose during study period,"KKAy mice, 20 mg/kg BW, 9 weeks, KKAy control 2.8 fold",1.8 fold
same,fold increase of plasma insulin during study period,"KKAy mice, 20 mg/kg BW, 9 weeks, KKAy control 266 fold",81 fold
same,increase of TG level at age 14 weeks compared to age 5 week,"KKAy mice, 9 weeks treatment, KKAy control 192%",62%
same,reduction in weight at the end of the 9 week treatment period,"KKAy mice, vs. KKAy control",13%
same,body weight after 5 weeks,"KKAy mice, KKAy control 38.6 g",29.9 g
same,body weight after 9 weeks treatment,"KKAy mice, KKAy control 41.6 g",36.3 g
